According to the kinase profiling compilation of Christmann-Franck et al. (2016):

Key:
Experiment in all cases: KINOMEscan competition binding
Settings in all cases: compound 10.0 µM
[1] = tested on: FGFR3 (human), P22607 [G697C]
[2] = tested on: BMX (human), P51813 [V600E]
[3] = tested on: ABL1 (human), P00519 [F317I]
[4] = tested on: FLT3 (human), P36888 [D835Y]
[5] = tested on: EGFR (human), P00533 [G719C]
[6] = tested on: RET (human), P07949 [V804L]
[7] = tested on: ABL1 (human), P00519 [F317L]
[8] = tested on: EGFR (human), P00533 [A750P; 747-749 del]
[9] = tested on: EGFR (human), P00533 [L858R]
[10] = tested on: PIK3CA (human), P42336 [H1047L]
[11] = tested on: MET (human), P08581 [M1250T]
[12] = tested on: PIK3CA (human), P42336 [E542K]
[13] = tested on: PIK3CA (human), P42336 [M1043I]
[14] = tested on: KIT (human), P10721 [D816H]
[15] = tested on: KIT (human), P10721 [A829P]
[16] = tested on: LRRK2 (human), Q5S007 [G2019S]

PIK3CA (human), P42336 [M1043I], sequence (P42336 whole entry M1043I, looked up): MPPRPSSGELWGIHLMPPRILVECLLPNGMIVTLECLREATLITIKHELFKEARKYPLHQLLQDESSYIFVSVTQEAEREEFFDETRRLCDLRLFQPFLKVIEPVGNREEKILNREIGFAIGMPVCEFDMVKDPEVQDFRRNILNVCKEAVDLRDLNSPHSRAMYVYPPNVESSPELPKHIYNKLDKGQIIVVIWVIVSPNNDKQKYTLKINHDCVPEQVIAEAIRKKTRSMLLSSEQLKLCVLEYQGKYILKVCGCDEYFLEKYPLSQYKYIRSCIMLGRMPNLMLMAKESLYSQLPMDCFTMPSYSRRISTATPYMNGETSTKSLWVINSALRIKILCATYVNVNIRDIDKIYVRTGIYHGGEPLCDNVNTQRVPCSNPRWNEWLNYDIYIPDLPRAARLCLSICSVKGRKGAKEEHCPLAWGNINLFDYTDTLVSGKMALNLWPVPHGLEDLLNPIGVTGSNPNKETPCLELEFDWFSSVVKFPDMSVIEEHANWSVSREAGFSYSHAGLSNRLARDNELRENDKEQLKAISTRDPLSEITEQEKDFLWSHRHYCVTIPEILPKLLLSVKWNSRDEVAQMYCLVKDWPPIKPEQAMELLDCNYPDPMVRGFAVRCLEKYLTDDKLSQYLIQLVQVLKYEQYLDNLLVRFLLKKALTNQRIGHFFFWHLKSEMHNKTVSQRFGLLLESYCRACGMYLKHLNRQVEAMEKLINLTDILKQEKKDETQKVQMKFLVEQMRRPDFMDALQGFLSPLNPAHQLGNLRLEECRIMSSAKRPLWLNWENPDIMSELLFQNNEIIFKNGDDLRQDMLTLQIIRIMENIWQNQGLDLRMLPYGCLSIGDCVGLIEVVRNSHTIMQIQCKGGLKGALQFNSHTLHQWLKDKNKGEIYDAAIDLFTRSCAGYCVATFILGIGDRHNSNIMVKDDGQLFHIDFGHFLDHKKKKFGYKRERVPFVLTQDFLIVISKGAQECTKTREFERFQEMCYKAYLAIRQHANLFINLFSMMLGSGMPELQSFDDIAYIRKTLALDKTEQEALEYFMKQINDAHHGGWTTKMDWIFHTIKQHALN
PIK3CA (human), P42336 [E542K], sequence (P42336 whole entry E542K, looked up): as the sequence (P42336 whole entry M1043I, looked up) above, with E542K, I1043M counted along it
RET (human), P07949 [V804L], sequence (P07949 whole entry V804L, looked up): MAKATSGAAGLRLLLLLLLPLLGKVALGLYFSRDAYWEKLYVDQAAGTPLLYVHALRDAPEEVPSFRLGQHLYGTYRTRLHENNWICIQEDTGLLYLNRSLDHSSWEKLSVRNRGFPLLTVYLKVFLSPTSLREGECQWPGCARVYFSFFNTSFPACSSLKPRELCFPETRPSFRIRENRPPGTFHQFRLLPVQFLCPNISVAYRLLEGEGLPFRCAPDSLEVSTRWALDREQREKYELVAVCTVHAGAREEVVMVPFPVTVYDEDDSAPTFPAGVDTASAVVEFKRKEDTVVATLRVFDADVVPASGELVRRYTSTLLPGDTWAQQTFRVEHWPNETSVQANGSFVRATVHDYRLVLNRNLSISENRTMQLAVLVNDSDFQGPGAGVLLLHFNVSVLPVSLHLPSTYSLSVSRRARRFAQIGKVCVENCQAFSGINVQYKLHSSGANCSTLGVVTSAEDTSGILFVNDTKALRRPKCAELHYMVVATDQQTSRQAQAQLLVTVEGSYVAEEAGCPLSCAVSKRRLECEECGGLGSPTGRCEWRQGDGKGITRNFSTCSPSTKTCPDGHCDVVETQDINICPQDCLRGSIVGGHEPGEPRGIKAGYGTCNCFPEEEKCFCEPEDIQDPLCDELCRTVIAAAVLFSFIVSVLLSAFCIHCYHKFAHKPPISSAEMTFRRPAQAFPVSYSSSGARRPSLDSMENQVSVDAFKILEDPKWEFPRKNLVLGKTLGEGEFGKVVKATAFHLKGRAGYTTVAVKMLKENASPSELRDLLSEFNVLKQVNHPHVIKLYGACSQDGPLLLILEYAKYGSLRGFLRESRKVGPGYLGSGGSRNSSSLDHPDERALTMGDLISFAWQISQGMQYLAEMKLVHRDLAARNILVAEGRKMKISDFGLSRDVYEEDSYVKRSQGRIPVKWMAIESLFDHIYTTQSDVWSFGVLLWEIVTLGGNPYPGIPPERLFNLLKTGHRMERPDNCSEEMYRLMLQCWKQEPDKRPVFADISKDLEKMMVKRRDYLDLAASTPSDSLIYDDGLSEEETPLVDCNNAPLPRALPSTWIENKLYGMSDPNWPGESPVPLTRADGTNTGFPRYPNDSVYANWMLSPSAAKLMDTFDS
ABL1 (human), P00519 [F317L], sequence (P00519 whole entry F317L, looked up): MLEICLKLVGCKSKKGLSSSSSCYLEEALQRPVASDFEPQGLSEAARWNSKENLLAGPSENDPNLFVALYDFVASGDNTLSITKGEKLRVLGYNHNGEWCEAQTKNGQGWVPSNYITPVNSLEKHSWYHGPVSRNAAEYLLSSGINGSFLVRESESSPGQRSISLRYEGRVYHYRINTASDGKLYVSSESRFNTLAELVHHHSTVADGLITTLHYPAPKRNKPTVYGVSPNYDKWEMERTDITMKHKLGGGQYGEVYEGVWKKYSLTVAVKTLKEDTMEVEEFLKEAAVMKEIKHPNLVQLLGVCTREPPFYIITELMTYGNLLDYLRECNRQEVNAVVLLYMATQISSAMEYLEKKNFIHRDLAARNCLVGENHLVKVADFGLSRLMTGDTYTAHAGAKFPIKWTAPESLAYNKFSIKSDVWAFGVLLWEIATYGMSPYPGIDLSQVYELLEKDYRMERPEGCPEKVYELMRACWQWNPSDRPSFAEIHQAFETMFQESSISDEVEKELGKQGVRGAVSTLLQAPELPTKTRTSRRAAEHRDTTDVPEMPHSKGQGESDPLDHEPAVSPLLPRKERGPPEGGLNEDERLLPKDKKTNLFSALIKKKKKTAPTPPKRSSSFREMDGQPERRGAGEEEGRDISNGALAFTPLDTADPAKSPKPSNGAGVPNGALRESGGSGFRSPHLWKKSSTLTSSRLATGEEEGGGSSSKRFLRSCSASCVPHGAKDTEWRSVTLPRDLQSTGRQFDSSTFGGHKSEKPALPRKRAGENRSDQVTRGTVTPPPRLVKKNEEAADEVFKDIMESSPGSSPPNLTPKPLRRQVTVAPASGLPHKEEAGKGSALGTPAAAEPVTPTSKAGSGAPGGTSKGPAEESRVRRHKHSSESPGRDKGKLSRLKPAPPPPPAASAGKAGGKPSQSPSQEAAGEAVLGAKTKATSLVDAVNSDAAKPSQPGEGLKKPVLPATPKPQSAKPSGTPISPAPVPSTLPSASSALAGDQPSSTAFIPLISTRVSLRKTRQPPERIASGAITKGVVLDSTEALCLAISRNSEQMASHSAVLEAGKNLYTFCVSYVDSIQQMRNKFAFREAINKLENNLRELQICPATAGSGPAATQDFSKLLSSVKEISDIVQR
PIK3CA (human), P42336 [H1047L], sequence (P42336 whole entry H1047L, looked up): as the sequence (P42336 whole entry M1043I, looked up) above, with I1043M, H1047L counted along it
FGFR3 (human), P22607 [G697C], sequence (P22607 whole entry G697C, looked up): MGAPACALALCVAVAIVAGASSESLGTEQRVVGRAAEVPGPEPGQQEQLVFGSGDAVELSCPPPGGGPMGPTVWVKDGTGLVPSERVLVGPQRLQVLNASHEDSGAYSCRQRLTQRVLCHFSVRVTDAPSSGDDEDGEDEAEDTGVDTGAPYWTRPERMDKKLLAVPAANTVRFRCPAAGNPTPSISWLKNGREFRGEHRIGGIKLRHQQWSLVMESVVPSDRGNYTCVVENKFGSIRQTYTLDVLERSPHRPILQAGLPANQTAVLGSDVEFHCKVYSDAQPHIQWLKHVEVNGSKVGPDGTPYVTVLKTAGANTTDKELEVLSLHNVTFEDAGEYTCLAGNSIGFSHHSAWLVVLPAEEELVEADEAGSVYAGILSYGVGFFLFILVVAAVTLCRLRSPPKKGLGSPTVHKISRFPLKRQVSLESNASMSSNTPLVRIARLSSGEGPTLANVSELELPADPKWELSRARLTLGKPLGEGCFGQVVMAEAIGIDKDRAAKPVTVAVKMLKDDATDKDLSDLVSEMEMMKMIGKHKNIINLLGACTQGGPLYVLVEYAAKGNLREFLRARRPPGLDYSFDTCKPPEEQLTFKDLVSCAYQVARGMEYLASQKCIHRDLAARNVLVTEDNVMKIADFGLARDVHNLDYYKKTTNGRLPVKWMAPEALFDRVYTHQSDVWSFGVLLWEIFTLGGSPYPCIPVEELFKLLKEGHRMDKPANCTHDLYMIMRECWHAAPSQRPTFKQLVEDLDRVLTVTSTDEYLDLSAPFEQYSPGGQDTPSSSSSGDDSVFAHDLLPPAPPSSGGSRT
ABL1 (human), P00519 [F317I], sequence (P00519 whole entry F317I, looked up): as the sequence (P00519 whole entry F317L, looked up) above, with L317I counted along it
BMX (human), P51813 [V600E], sequence (P51813 whole entry, looked up, stated change not applied): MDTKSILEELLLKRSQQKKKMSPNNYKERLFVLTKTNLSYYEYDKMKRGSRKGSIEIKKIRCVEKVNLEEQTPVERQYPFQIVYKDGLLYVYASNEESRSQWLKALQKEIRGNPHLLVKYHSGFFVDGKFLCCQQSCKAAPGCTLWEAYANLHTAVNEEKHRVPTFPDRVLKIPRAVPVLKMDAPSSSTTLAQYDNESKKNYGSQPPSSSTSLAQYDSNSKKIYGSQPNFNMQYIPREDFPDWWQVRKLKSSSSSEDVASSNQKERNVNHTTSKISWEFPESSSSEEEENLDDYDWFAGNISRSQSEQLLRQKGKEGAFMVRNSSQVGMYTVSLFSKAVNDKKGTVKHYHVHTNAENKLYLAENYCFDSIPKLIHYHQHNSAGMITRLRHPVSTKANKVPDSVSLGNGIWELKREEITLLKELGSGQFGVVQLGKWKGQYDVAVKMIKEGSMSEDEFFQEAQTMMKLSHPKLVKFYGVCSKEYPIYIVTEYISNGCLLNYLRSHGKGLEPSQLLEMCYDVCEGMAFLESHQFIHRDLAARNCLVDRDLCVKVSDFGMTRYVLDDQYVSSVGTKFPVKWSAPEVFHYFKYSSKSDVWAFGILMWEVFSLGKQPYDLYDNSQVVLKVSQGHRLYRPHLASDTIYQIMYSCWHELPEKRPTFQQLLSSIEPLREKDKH

Compound	kinase still bound, per cent of control [1]	kinase still bound, per cent of control [2]	kinase still bound, per cent of control [3]	kinase still bound, per cent of control [4]	kinase still bound, per cent of control [5]	kinase still bound, per cent of control [6]	kinase still bound, per cent of control [7]	kinase still bound, per cent of control [8]	kinase still bound, per cent of control [9]	kinase still bound, per cent of control [10]	kinase still bound, per cent of control [11]	kinase still bound, per cent of control [12]	kinase still bound, per cent of control [13]	kinase still bound, per cent of control [14]	kinase still bound, per cent of control [15]	kinase still bound, per cent of control [16]
CCN(CC)CCCCNc1ncc2c(n1)N(C)C(=O)N(c1c(Cl)c(OC)cc(OC)c1Cl)C2	1.3%	100%	100%	100%	100%	100%	100%	100%	100%	100%	100%	100%	100%			
Cc1n[nH]c2ccc(-c3cncc(OC[C@@H](N)Cc4c[nH]c5ccccc45)c3)cc12	100%	100%	100%	0.2%		12%	100%									
C=CC(=O)Nc1ccc(CN(C(=O)Nc2c(Cl)c(OC)cc(OC)c2Cl)c2cc(Nc3ccc(N4CCN(C)CC4)cc3)ncn2)cc1	1.4%	100%	100%	100%	0.1%	100%	100%	0.55%	0.2%							
Cc1ccc(C(=O)Nc2cccc(C(F)(F)F)c2)cc1Nc1cncc(C(N)=O)c1	100%	0.15%	13%	100%	100%	100%	22%	100%	100%							
CNC(=O)c1ccc(Nc2cc(Nc3ccccc3S(=O)(=O)C(C)C)c3cc[nH]c3n2)nc1	20%	100%	30%	0.1%	100%	0.2%	28%	100%	100%							
C=CC(=O)Nc1cc(NC(=O)c2ccc(C)c(NC(=O)c3ccno3)c2)cc(C(F)(F)F)c1	91%	19%		100%	94%	100%		100%	100%	73%	86%	88%	93%	75%	54%	85%
CCOc1cc2ncc(C#N)c(Nc3ccc(OCc4ccccn4)c(Cl)c3)c2cc1NC(=O)/C=C/CN(C)C	100%	100%				100%	100%			100%	47%	100%	100%	88%	100%	85%
Cn1c(=O)n(-c2ccc(C(C)(C)C#N)cc2)c2c3cc(-c4cnc5ccccc5c4)ccc3ncc21	100%	100%	100%	12%	100%	100%	100%	100%	100%	4.8%		2.8%				
C=CC(=O)Nc1cccc(Nc2nc(N[C@H]3CC[C@H](N(C)C)CC3)nc3c2ncn3C(C)C)c1	99%	85%		0.85%	79%	80%		76%	99%	100%	100%	100%	100%	27%	23%	45%
Cc1ccc(NC(=O)c2cccc(C(C)(C)C#N)c2)cc1Nc1ccc2ncn(C)c(=O)c2c1	100%	0%		100%	49%	31%		11%	48%	100%	64%	100%	89%	57%	100%	69%

The next lines start with the values.

kinase still bound, per cent of control [1]	kinase still bound, per cent of control [2]	kinase still bound, per cent of control [3]	kinase still bound, per cent of control [4]	kinase still bound, per cent of control [5]	kinase still bound, per cent of control [6]	kinase still bound, per cent of control [7]	kinase still bound, per cent of control [8]	kinase still bound, per cent of control [9]	kinase still bound, per cent of control [10]	kinase still bound, per cent of control [11]	kinase still bound, per cent of control [12]	kinase still bound, per cent of control [13]	kinase still bound, per cent of control [14]	kinase still bound, per cent of control [15]	kinase still bound, per cent of control [16]	Compound
100%	100%	100%	0.8%	0.35%	100%	100%	0.05%	0.1%								C=CC(=O)Nc1cccc(Oc2nc(Nc3ccc(N4CCN(C)CC4)cc3OC)ncc2Cl)c1
100%	100%	5%	100%	100%	100%	17%	100%	100%	100%	100%	100%	100%				COc1cc(N2CCN(C)CC2)ccc1Nc1ncc2c(n1)N(C)c1ccccc1C(=O)N2C
100%	100%	100%	100%	100%	100%	100%	100%	100%								COc1cc(C(=O)NC2CCN(C)CC2)ccc1Nc1ncc2c(n1)N(C1CCCC1)C(C)CC(=O)N2C (centres undefined)
100%	100%	100%	100%	100%	100%	100%	100%	100%	9.8%	100%	0.45%	19%				CS(=O)(=O)N1CCN(Cc2cc3nc(-c4cccc5[nH]ncc45)nc(N4CCOCC4)c3s2)CC1
100%	100%	100%	100%		100%	100%										CC[C@@H]1C(=O)N(C)c2cnc(Nc3ccc(C(=O)NC4CCN(C)CC4)cc3OC)nc2N1C1CCCC1
31%	100%		3.5%	89%	0.9%		79%	76%	1.8%	71%	24%	15%	65%	59%	18%	CCN1CCN(Cc2ccc(Nc3ncc4c(n3)N(C)c3ccccc3C(=O)N4C)cc2C(F)(F)F)CC1
